This is an account of results in ChEMBL document CHEMBL5729030, “Compound as selective JAK inhibitor, and salt and therapeutic use thereof” (2022).

SMILES strings stand for the structures.

In experiment [1] the target is Tyrosine-protein kinase JAK2 (Homo sapiens, UniProt O60674). As to the kind of experiment: (§1) Inhibition of JAK: The study of the effect of compounds on the activity of purified recombinant JAK was performed by studying the inhibitory activity of the compounds on JAK from the enzymatic level. The experimental principle is to use a luminescence kinase assay to detect the ADP content produced by the reaction of JAK with the substrate Poly (4:1 Glu, Tyr) peptide: after ADP is converted to ATP, ATP can act as a substrate for the Ultra-Glo luciferase catalytic reaction, producing an optical signal. The luminescence signal is positively correlated with the amount of ADP and kinase activity. Therefore, the inhibitory effect of the compounds on the recombinant JAK was determined by observing the luminescence signal produced by the reaction of JAK and the substrate, and was expressed by IC50.

Experiment [2] has as its target T1, Tyrosine-protein kinase JAK3 (Homo sapiens, UniProt P52333).
T1 sequence (P52333 whole entry): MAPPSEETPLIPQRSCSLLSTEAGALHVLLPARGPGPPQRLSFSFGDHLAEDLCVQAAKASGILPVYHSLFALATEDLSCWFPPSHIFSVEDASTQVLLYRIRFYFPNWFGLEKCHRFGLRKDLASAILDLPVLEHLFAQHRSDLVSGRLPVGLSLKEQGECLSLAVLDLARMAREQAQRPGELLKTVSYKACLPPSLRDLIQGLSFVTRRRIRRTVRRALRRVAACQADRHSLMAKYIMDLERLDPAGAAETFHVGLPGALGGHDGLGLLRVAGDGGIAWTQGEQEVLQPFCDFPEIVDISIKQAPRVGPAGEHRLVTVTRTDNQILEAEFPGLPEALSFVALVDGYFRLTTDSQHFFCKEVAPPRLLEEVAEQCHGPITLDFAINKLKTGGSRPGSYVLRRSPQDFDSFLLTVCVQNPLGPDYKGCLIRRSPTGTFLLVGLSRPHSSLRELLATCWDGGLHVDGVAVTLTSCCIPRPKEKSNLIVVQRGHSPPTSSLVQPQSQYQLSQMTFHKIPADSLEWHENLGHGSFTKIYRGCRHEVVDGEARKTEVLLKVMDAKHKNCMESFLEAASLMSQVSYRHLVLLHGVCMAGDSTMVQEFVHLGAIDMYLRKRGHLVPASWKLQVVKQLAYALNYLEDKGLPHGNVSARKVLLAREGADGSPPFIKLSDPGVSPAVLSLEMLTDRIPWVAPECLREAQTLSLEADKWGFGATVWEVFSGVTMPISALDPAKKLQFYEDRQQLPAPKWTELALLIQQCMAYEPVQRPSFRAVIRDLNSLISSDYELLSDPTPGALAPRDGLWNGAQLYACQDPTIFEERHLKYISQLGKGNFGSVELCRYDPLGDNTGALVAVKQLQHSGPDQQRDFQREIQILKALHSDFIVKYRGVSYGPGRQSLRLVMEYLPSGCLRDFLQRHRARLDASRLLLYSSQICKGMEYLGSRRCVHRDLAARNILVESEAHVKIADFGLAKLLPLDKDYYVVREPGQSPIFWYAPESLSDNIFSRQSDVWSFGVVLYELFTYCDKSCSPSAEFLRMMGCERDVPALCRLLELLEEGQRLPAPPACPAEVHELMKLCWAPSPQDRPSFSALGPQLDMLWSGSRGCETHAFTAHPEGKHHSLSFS
The description is as §1.

Tyrosine-protein kinase JAK2, sequence (O60674 whole entry): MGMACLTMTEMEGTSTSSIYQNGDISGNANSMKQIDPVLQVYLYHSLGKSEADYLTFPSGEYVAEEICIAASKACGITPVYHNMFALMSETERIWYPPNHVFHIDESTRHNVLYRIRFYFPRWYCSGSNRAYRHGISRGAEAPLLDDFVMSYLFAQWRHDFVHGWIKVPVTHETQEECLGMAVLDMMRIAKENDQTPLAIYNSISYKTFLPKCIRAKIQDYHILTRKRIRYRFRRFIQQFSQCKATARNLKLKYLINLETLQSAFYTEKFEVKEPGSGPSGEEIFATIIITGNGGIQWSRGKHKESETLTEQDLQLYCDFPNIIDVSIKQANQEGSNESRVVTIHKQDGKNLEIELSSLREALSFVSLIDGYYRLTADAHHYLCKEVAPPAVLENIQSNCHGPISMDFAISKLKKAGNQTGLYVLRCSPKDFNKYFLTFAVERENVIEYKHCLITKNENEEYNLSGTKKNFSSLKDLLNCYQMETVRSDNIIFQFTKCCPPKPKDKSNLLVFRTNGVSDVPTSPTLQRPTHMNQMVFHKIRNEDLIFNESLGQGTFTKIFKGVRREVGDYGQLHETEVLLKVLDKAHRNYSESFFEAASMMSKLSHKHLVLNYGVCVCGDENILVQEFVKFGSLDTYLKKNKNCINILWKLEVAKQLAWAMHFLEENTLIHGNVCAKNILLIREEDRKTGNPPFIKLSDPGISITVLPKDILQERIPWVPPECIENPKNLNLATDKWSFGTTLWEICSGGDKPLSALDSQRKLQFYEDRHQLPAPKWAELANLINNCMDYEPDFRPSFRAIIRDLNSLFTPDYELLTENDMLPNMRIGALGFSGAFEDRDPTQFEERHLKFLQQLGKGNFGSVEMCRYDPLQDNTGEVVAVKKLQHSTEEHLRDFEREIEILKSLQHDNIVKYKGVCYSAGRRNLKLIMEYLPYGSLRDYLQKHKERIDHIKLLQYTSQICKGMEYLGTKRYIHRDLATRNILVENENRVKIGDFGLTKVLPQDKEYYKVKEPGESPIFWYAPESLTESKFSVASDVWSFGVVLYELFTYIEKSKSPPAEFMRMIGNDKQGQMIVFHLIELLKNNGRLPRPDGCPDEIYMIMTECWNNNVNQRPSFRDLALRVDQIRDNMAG

One may read the IC50 as the midpoint of a concentration-inhibition curve. For `CS(=O)(=O)C1CN(Cc2ccc(-c3cccc4nc(NC(=O)C5CC5)nn34)cc2F)C1`, the 50% inhibitory concentration (IC50) in experiment [1] and in experiment [2] was greater than 50 nM throughout.

For the compound `CS(=O)(=O)C1CN(Cc2ccc(-c3cccn4nc(NC(=O)C5CC5)nc34)cc2F)C1`, the IC50 in experiment [1] and in experiment [2] was greater than 50 nM each time.
